Test system: PGD2
Test: not given
Conditions: dosed intranasally, phase I/II study, allergic rhinitis; cited from earlier work

SMILES | change in PGD2 | clinical safety
Oc1cccc(Nc2ncc(F)c(Nc3cccc(O)c3)n2)c1 [Example R112] | statistically significant decrease in PGD2 | safe across a range of indicators

Test system: not given
Test: not given
Conditions: phase II clinical trial, allergic rhinitis; cited from earlier work

SMILES | efficacy versus placebo
Oc1cccc(Nc2ncc(F)c(Nc3cccc(O)c3)n2)c1 [Example R112] | lack of efficacy versus placebo

Molecular target: T1, recombinant human GST-SYK (Homo sapiens, UniProt P43405)
T1 construct: purchased Carna Biosciences 08-176
Test: Homogeneous Time-Resolved Fluorescence (HTRF) assay for the recombinant human Syk enzyme
Assay type: biochemical
Conditions: recombinant human GST-SYK 5 pM, ATP 25 μM, read-out: rhSYK IC50
Protocol: Homogeneous Time-Resolved Fluorescence (HTRF) Assay for the Recombinant Human Syk Enzyme
A recombinant GST-hSYK fusion protein was used to measure potency of compounds to inhibit human Syk activity. The recombinant human GST-SYK (Carna Biosciences #08-176) (5 pM final concentration) was incubated with various concentrations of the inhibitor diluted in DMSO (0.1% final concentration) for 10 minutes at room temperature in 15 mM Tris-HCl (pH 7.5), 0.01% tween 20, 2 mM DTT in 384 well plate format. To initiate the reaction the biotinylated substrate peptide (250 nM final concentration) that contains the phosphorylation site for Syk was added with magnesium (5 mM final concentration) and ATP (25 μM final concentration). Final volume of the reaction was 10 μL. Phosphorylation of the peptide was allowed to proceed for 45′ at room temperature. To quench the reaction and detect the phosphorylated product, 2 nM of a Europium-anti-phosphotyrosine antibody (Perkin Elmer #AD0161) and 70 nM SA-APC (Perkin-Elmer #CR130-100) were added together in 15 mM Tris pH 7.5, 40 mM EDTA, 0.01% tween 20. Final volume of the quenching solution was 10 μL.
The resulting HTRF signal was measured after 30 minutes on an EnVision (Perkin-Elmer) reader using a time-resolved fluorescence protocol. Table A below lists activities as IC50 values (nM) for representative compounds of the invention.

SMILES | IC50 [nM]
Cc1cc(Nc2cc(C(F)(F)F)ncn2)nc(-c2cnc(C3(O)CCC(C(=O)O)C(C)(C)C3)s2)c1 (single isomer, unassigned) [Example 1.7, (1S,4R or 1R,4S)-4-hydroxy-2,2-dimethyl-4-[5-(4-methyl-6-{[6-(trifluoromethyl)pyrimidin-4-yl]amino}pyridin-2-yl)-1,3-thiazol-2-yl] cyclohexane-carboxylic acid] | 2.62
CC1(C)CC(O)(c2ncc(-c3nccc(Nc4cc(C(F)(F)F)ccn4)n3)s2)CCC1C(=O)O (single isomer, unassigned) [Example 1.13, (1S,4R or 1R,4S)-4-hydroxy-2,2-dimethyl-4-[5-(4-{[4-(trifluoromethyl)pyridin-2-yl]amino}pyrimidin-2-yl)-1,3-thiazol-2-yl]cyclohexane-carboxylic acid] | 0.564
Cc1cc(Nc2nccc(OC(C)C)n2)cc(-c2cnc([C@@]3(O)CC[C@H](C(N)=O)C(C)(C)C3)s2)n1 (single isomer, unassigned) [Example 1.1, (1S,4R or 1R,4S)-4-hydroxy-4-(5-(4-((4-isopropoxypyrimidin-2-yl)amino)-6-methylpyridin-2-yl)thiazol-2-yl)-2,2-dimethylcyclohexanecarboxamide] | 1.1
Cc1cc(Nc2cc(C(F)(F)F)ncn2)nc(-c2cnc([C@@]3(O)CC[C@H](C(=O)O)[C@H](C)C3)s2)c1 (single isomer, unassigned) [Example 1.4, rel-(1S,2R,4R or S)-4-hydroxy-2-methyl-4-[5-(4-methyl-6-{[6-(trifluoromethyl)pyrimidin-4-yl]amino}pyridin-2-yl)-1,3-thiazol-2-yl]cyclohexane-carboxylic acid] | 0.475
CC1(C)CC(O)(c2ncc(-c3nccc(Nc4cc(C(F)(F)F)ccn4)n3)s2)CCC1C(=O)O (single isomer, unassigned) [Example 1.14, 4-hydroxy-2,2-(1S,4R or 1R,4S)-dimethyl-4-[5-(4-{[4-(trifluoromethyl)pyridin-2-yl]amino}pyrimidin-2-yl)-1,3-thiazol-2-yl] cyclohexane-carboxylic acid] | 12.1
Cc1cc(Nc2cc(C(F)(F)F)ncn2)nc(-c2cnc(C3(O)CCC(C(=O)O)C(C)(C)C3)s2)c1 (stereo not shown) [Example 1.2, 4-hydroxy-2,2-dimethyl-4-[5-(4-methyl-6-{[6-(trifluoromethyl)pyrimidin-4-yl]amino}pyridin-2-yl)-1,3-thiazol-2-yl]cyclohexane-carboxylic acid] | 1.17
Cc1cc(Nc2nccc(C(F)(F)F)n2)cc(-c2cnc(C3(O)CCC(C(=O)O)C(C)(C)C3)s2)n1 (single isomer, unassigned) [Example 1.9, (1S,4R or 1R,4S)-4-hydroxy-2,2-dimethyl-4-[5-(6-methyl-4-{[4-(trifluoromethyl)pyrimidin-2-yl]amino}pyridin-2-yl)-1,3-thiazol-2-yl] cyclohexane-carboxylic acid] | 2.1

Other lines, results leading:

IC50 [nM] | SMILES
1010 | Cc1cc(Nc2nccnn2)cc(-c2cnc(C3(O)CCC3)s2)c1 [Example 3.2, 1-{5-[3-methyl-5-(1,2,4-triazin-3-ylamino)phenyl]-1,3-thiazol-2-yl}cyclobutanol]
111 | CCOc1cc(Nc2nccc(C(F)(F)F)n2)cc(-c2cnc(C3(O)CCC3)s2)n1 [Example 4.1, 1-(5-(6-Ethoxy-4-((4-(trifluoromethyl)pyrimidin-2-yl)amino)pyridin-2-yl)thiazol-2-yl)cyclobutanol]
5.2 | CC(O)(c1ncc(-c2cc(Nc3nccc(C(F)(F)F)n3)cc(Cl)n2)s1)[C@H]1CC[C@H](C(=O)O)CC1 (single isomer, unassigned) [Example 4.23, (trans)-4-((R or S)-1-[5-(6-chloro-4-{[4-(trifluoromethyl)pyrimidin-2-yl]amino}pyridin-2-yl)-1,3-thiazol-2-yl]-1-hydroxyethyl} cyclohexanecarboxylic acid]
35.2 | OC1(c2ncc(-c3cccc(Nc4cnccn4)n3)s2)CCC1 [Example 4.2, 1-{5-[6-(pyrazin-2-ylamino)pyridin-2-yl]-1,3-thiazol-2-yl}cyclobutanol]
375 | CCCCOC(=O)[C@H]1CC[C@H](C(C)(O)c2ncc(-c3cc(Nc4nccc(C(F)(F)F)n4)cc(C)n3)s2)CC1 (single isomer, unassigned) [Example 4.6, butyl (trans)-4-((R or S)-1-hydroxy-[5-(6-methyl-4-{[4-(trifluoromethyl)pyrimidin-2-yl]amino}pyridin-2-yl)-1,3-thiazol-2-yl]ethyl}cyclohexane carboxylate]
182 | Cc1cnnc(Nc2cc(C)cc(-c3cnc([C@@]4(O)CC[C@H](C(=O)O)C(C)(C)C4)s3)n2)c1 (single isomer, unassigned) [Example 3.3, (1S,4R or 1R,4S)-4-hydroxy-2,2-dimethyl-4-(5-{4-methyl-6-[(5-methylpyridazin-3-yl)amino]pyridin-2-yl}-1,3-thiazol-2-yl)cyclohexanecarboxylic acid]
94 | CCCCOC(=O)[C@H]1CC[C@H](C(C)(O)c2ncc(-c3cc(Nc4nccc(C)n4)cc(C)n3)s2)CC1 (single isomer, unassigned) [Example 4.10, butyl (trans)-4-((R or S)-1-hydroxy-1-(5-{6-methyl-4-[(4-methylpyrimidin-2-yl)amino]pyridin-2-yl}-1,3-thiazol-2-yl)ethyl]cyclohexane carboxylate]
14.5 | Cc1cc(Nc2cc(C)ccn2)cc(-c2cnc(C(C)(O)[C@H]3CC[C@H](C(=O)O)CC3)s2)c1 (single isomer, unassigned) [Example 4.14, (trans)-4-((R or S)-1-hydroxy-1-(5-{3-methyl-5-[(4-methylpyridin-2-yl)amino]phenyl}-1,3-thiazol-2-yl)ethyl]cyclohexane carboxylic acid]
1.82 | CC(O)(c1ncc(-c2cncc(Nc3cc(C(F)(F)F)ccn3)n2)s1)[C@H]1CC[C@H](C(=O)O)CC1 (single isomer, unassigned) [Example 4.12, (trans)-4-((R or S)-1-hydroxy-1-[5-(6-{[4-(trifluoromethyl)pyridin-2-yl]amino}pyrazin-2-yl)-1,3-thiazol-2-yl]ethyl}cyclohexane carboxylic acid]
2.12 | COc1cc(Nc2nccc(C(F)(F)F)n2)cc(-c2cnc(C(C)(O)[C@H]3CC[C@H](C(=O)O)CC3)s2)n1 (single isomer, unassigned) [Example 4.21, (trans)-4-((R or S)-1-hydroxy-1-[5-(6-methoxy-4-{[4-(trifluoromethyl)pyrimidin-2-yl]amino}pyridin-2-yl)-1,3-thiazol-2-yl]ethyl}cyclohexane carboxylic acid]
46.5 | Cc1cc(Nc2cccnn2)nc(-c2cnc(C3(O)CCCc4cc(C(=O)O)ccc43)s2)c1 (single isomer, unassigned) [Example 2.8, (R or S)-5-hydroxy-5-{5-[4-methyl-6-(pyridazin-3-ylamino)pyridin-2-yl]-1,3-thiazol-2-yl}-5,6,7,8-tetrahydronaphthalene-2-carboxylic acid]
5.55 | COc1cc(Nc2nccc(C(F)(F)F)n2)cc(-c2cnc(C3(O)CCC(C(=O)O)C(C)(C)C3)s2)n1 (single isomer, unassigned) [Example 4.18, (1S,4R or 1R,4S)-4-hydroxy-4-[5-(6-methoxy-4-{[4-(trifluoromethyl)pyrimidin-2-yl]amino}pyridin-2-yl)-1,3-thiazol-2-yl]-2,2-dimethylcyclohexane carboxylic acid]

Source: US9745295B2, “Thiazole-substituted aminoheteroaryls as spleen tyrosine kinase inhibitors” (Merck Sharp & Dohme Corp., priority 2013, dated 2017)
